Each structure is given as a SMILES string. Read-outs that look alike come from different tables or passages of the source.

Data set [1] deals with U87MG human glioblastoma cell. Briefly: BrdU cell proliferation assay (Cell Signaling kit). Format: cell-based. The following applies: U-87 MG, 72 h, read-out: In vitro cell-inhibiting activity IC50 U87MG. The protocol:
(§1) Experimental method: cell proliferation assay was carried out by BrdU method (BrdU cell proliferation assay kit, Cell Signaling Technology Company).
(§2) Preparation of gradient dilution solutions of test compound: the stock solution containing 10 mM test compound was subjected to 4-fold stepwise dilution with DMSO to prepare solutions containing 2.5 mM, 625 μM, 156 μM, 39 μM, 9.8 μM, and 2.5 μM test compound, respectively. 2 μL DMSO-diluted compound was added to 198 μL culture medium containing 10% FBS to prepare […] test compound, wherein the maximum concentration of the test compound was 100 μM, the concentration of DMSO was 1%, and there were 7 concentration gradients.
U87MG medium: MEM+10% FBS
(§3) (1) Cells grown to 80% confluence (in exponential growth phase) were digested with pancreatin, and centrifuged to collect the cells. MDA-MB-435S and U87MG cells were re-suspended in FBS-free culture medium, counted, and seeded to a 96-well plate; MDA-MB-435S cells were seeded at 3000 cells/well/81 μL; U87MG cells were seeded at 4000 cells/well/81 MCF-7 cells were resuspended in culture medium containing 1% FBS, and counted and seeded to a 96-well plate, at 4000 cell/well/82 μL. The plates were placed in a cell incubator at 37° C. […]
(§4) (9) To each well, stop solution (100 μL) was added, and OD value at 450 nm was measured by ELISA instrument […]

The subject of data set [2] is MDA-MB-435S human melanoma cell. Briefly: BrdU cell proliferation assay (Cell Signaling kit). The conditions noted are these: 72 h, read-out: In vitro cell-inhibiting activity IC50 MDA-MB-435S. It counts as cell-based. The protocol:
as §1, §2
MDA-MB-435S medium: L-15+10% FBS+0.01 mg/mL insulin
as §3, §4

Data set [3] is described as follows: Pharmacokinetics in nude mouse (IV and PO). Format: in vivo. The following applies: female, BALB/c nude, plasma; for bioavailability: read-out: F (absolute bioavailability). The protocol:
Test animal: female nude mouse (BALB/c); control agent: 3 mice/administration route at each time point, weight: 22-25 g/mouse; Compound 1: 3 mice/administration route at each time point, weight: 22-25 g/mouse; Compound 6-1: 6 mice/administration route/test compound, weight: 18-26 g/mouse.
Control agent/Compound 1, IV administration group: before administration, 0.083, 0.25, 0.5, 1, 2, 4, 6, 8, 24, and 30 h after administration; PO administration group (10 mg/kg): before administration, 0.167, 0.5, 1, 2, 4, 6, 8, 24, and 30 h after administration.
Compound 1, PO administration group (100 mg/kg): 0.167, 0.5, 1, 2, 4, 6, 8, 24, 30, and 48 h after administration.
Compound 6-1, IV administration group (2.5 mg/kg) and PO administration group (10 mg/kg): 0.083, 0.25, 0.5, 1, 2, 4, 6, 8 and 24 h after administration; Compound 6-1, PO administration group (100 mg/kg): 0.083, 0.25, 0.5, 1, 2, 4, 6, 8, 24, 30, 48 h after administration.
Control agent/Compound 1: 300 μL whole blood was collected from intraocular canthus at each time point, and was centrifuged at 8000 r/min for 6 min in a high speed centrifuge to separate the plasma; the plasma was stored in a refrigerator at −80° C. Compound 6-1: 60 μL whole blood was collected from intraocular canthus at each time point, and was placed in an anticoagulation tube containing anticoagulant agent K2EDTA; the blood sample was centrifuged at 8000 r/min for 6 min to obtain a plasma sample.
The plasma samples of control agent and compound 1 were analyzed by precipitation of protein: to 50 μL plasma, 200 μL internal standard (acetonitrile solution containing 500 ng/mL Warfarin) was added; the resultant mixture was vortexed for 3 min at 1500 r/min, and centrifuged for 5 min at 13000 r/min; to 100 μL supernatant, 400 μL water was added; the resultant mixture was mixed homogeneously under vortexing and analyzed by LC-MS/MS.
The plasma sample of compound 6-1 was analyzed by precipitation of protein: to a suitable amount of plasma, a given volume of internal standard solution was added; the resultant mixture was vortexed and centrifuged; the supernatant was diluted by adding a given volume of water; the resultant mixture was mixed homogeneously under vortexing and analyzed by LC-MS/MS.

Data set [4] has as its system MCF-7 human breast cancer cell. As to the kind of experiment: BrdU cell proliferation assay (Cell Signaling kit). The conditions noted are these: MCF7, 72 h, read-out: In vitro cell-inhibiting activity IC50 MCF-7. It counts as cell-based. The protocol: as §1, §2
MCF-7 medium: DMEM+10% FBS+0.01 mg/mL insulin
as §3, §4

The target of data set [5] is CDK4/D3 (Homo sapiens, UniProt P11802). Briefly: In vitro enzyme-inhibiting activity, Caliper Mobility Shift method. Format: biochemical. The conditions noted are these: read-out: CDK enzyme-inhibiting activity IC50 CDK4/D3.
Sequence of CDK4/D3 (P11802 whole entry): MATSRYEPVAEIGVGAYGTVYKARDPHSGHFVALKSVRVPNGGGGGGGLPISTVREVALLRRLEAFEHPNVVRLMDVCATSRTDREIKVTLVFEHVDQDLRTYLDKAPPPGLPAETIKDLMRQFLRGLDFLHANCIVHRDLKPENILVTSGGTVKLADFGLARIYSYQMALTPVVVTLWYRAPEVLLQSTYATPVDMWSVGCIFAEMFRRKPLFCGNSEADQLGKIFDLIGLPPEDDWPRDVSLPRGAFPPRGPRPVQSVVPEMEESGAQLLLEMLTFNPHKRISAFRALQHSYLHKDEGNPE
Sequence of CDK4/D3 (P30281 whole entry partner): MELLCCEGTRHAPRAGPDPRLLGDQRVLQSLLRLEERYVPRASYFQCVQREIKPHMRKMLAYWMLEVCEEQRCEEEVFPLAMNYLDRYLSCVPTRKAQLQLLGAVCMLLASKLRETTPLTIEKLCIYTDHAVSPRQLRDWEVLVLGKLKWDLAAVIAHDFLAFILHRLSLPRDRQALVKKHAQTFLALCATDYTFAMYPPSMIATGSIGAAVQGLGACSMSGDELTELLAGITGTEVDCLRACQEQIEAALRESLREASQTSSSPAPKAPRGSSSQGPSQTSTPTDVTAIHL
Description: (§5) Measurement of activity for inhibiting CDK4/6 kinase by Caliper Mobility Shift method.
1) Preparation of 1-Fold Buffer for CDK4 Kinase 800 μL stock solution containing 1000 mM HEPES (pH 7.5), and 40 μL stock solution containing 10% Triton X-100, were added to 39160 μL ultra pure water, and the resultant mixture was mixed homogeneously.
(§6) 25 mL stock solution containing 4% Coating Reagent #3 (provided with the 12-sipper chip used in Caliper device), 50 mL stock solution containing 1000 mM HEPES (pH 7.5), 50 mL stock solution containing 0.5 M EDTA, and 0.25 mL stock solution containing 30% Brij-35, were added to 374.75 mL ultra pure water, and the resultant mixture was mixed homogeneously.
7 μL CDK4/D3 enzyme solution, and 9 μL stock solution containing 1M DTT were added to 1784 μL 1-fold CDK4 kinase buffer, and the resultant mixture was mixed homogeneously.
10 μL stock solution containing 100 mM ATP, 45 μL stock solution containing 1M MgCl2, and 45 μL FAM-tagged polypeptide 8, were added to 1700 μL 1-fold CDK4 kinase buffer, and the resultant mixture was mixed homogeneously.
(§7) DMSO solution containing 10 mM test compound was diluted with DMSO to a solution containing 50 μM test compound (which was used as a stock solution).
(§8) 1) 5 μL 5-fold test compound solution and 10 μL 2.5-fold kinase solution were added to the corresponding wells in a 384-well plate, and incubated at room temperature for 10 min.
(§9) 2) To the corresponding wells, 10 μL 2.5-fold polypeptide solution was added to start the enzymatic reaction, and incubation was performed at 28° C. for 5 h.
(§10) To the corresponding wells, 25 μL stop solution was added to stop the reaction.
(§11) The data was read by Caliper device, the inhibition rate was calculated by the following formula, and curve fitting was carried out by GraphPad5.0 software to get IC50 value. Inhibition rate=(maximal value−sample value)/(maximal value−minimal value)×100, wherein, maximal value: positive control without addition of test compound; minimal value: negative control without addition of enzyme.
Data set [6] concerns the target CDK6/D3 (Homo sapiens, UniProt Q00534). Described as above. The conditions noted are these: read-out: CDK enzyme-inhibiting activity IC50 CDK6/D3. Format: biochemical.
Description: as §5
50 mL stock solution containing 1000 mM HEPES (pH 7.5), and 50 μL stock solution containing 30% Brij-35, were added to 949.95 mL ultra pure water, and the resultant mixture was mixed homogeneously.
as §6
18 μL CDK6/D3 enzyme solution, and 14 μL stock solution containing 1M DTT were added to 2768 μL 1-fold CDK6 kinase buffer, and the resultant mixture was mixed homogeneously.
23 μL stock solution containing 100 mM ATP, 75 μL stock solution containing 1M MgCl2, and 75 μL FAM-tagged polypeptide 8, were added to 2827 μL 1-fold CDK6 kinase buffer, and the resultant mixture was mixed homogeneously.
as §7, §8, §9, §10, §11

Sequence of CDK6/D3 (Q00534 whole entry): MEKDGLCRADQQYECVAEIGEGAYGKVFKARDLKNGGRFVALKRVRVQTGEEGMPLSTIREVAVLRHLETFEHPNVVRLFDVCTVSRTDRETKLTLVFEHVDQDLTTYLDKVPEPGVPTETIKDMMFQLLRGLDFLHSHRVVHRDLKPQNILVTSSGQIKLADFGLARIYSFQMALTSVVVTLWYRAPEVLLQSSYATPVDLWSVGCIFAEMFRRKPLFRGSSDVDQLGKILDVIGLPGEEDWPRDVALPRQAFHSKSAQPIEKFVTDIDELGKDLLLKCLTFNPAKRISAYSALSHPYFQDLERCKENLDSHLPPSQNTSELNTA
Sequence of CDK6/D3 (P30281 whole entry partner): as the sequence (P30281 whole entry partner) above

As for `Cc1nc2c(F)cc(-c3cc(Nc4ncc(CN5C[C@H]6CN(C)C[C@H]6C5)cn4)ncc3F)cc2n1C(C)C` [Compound 6-1, N-(5-fluoro-4-(4-fluoro-1-isopropyl-2-methyl-1H-benzo[d]imidazol-6-yl)pyridin-2-yl)-5-(((cis)-5-methylhexahydropyrrolo[3,4-c]pyrrol-2(1H)-yl)methyl)pyrimidin-2-amine], in data set [1], the IC50 turned out to be 47 nM. For the same molecule, the IC50 in data set [2] turned out to be 70 nM. For the same molecule, in data set [3] (IV, 2.5 mg/kg), the AUC(0-t) (in general, the area under the concentration-time curve up to a stated or last time point) was 985 ng·h/mL and the clearance is 40.2 mL/min/kg. The Vd in data set [3] (IV, 2.5 mg/kg, read-out: Vss) is 12.5 L/kg. Besides, in data set [3] (PO, 10 mg/kg), the AUC(0-t) stood at 1410 ng·h/mL; the Cmax (in general, the highest concentration seen after dosing) was 300 ng/mL; the Tmax (usually the time at which the peak concentration occurs) stood at 2 h; the bioavailability was determined as 39.3%. For the same molecule, in data set [3] (PO, 200 mg/kg), the area under the curve AUC(0-t) stood at 90900 ng·h/mL, the concentration peaked (Cmax) at 5370 ng/mL, the Tmax came to 2 h and the bioavailability was determined as 115%. Further, in data set [4], the IC50 is 83 nM.

Turning to `CCN1CC2CCC(C1)N2Cc1cnc(Nc2cc(-c3cc(F)c4nc(C)n(C(C)C)c4c3)c(F)cn2)nc1` [Compound 13, 5-((3-ethyl-3,8-diazabicyclo[3.2.1]octan-8-yl)methyl)-N-(5-fluoro-4-(4-fluoro-1-isopropyl-2-methyl-1H-benzo[d]imidazol-6-yl)pyridin-2-yl)pyrimidin-2-amine], the values for the IC50 in data set [5] and in data set [6] were 3 nM and 31.3 nM, respectively.

`CCN1C2CCC1CN(Cc1cnc(Nc3cc(-c4cc(F)c5nc(C)n(C(C)C)c5c4)c(F)cn3)nc1)C2` [Compound 14, 5-((8-ethyl-3,8-diazabicyclo[3.2.1]octan-3-yl)methyl)-N-(5-fluoro-4-(4-fluoro-1-isopropyl-2-methyl-1H-benzo[d]imidazol-6-yl)pyridin-2-yl)pyrimidin-2-amine]: the IC50 in data set [5] stood at 2.6 nM; in data set [6] it was 23.1 nM.

Source of the values: US9949976B2, “Kinase inhibitor and use thereof” (Sihuan Pharmaceutical Holdings Group Ltd., priority 2013, dated 2018).
